Data reported in PMC9228535, “Antistaphylococcal Activities and ADME-Related Properties of Chlorinated Arylcarbamoylnaphthalenylcarbamates” (Pharmaceuticals, 2022).
≈ marks a conversion by molar mass, not a printed value. Read-outs that look alike come from different tables or passages of the source.

Legend:
[1] = system: Staphylococcus aureus ATCC 29213; test: MBC, agar aliquot subculture method; format: cell-based; conditions: ATCC29213, SA = S. aureus ATCC 29213, read-out: MBC
Method: (§1) All the investigated compounds were screened for in vitro antibacterial activity against the reference and quality control strain Staphylococcus aureus ATCC 29213 and clinical isolates of methicillin-resistant S. aureus (MRSA) 63718, SA 630, and SA 3202 [14]. Activities are expressed as the minimum inhibitory concentrations (MICs), see Table 2. In addition to the MICs, the minimum bactericidal concentrations (MBCs) were also determined.
(§2) For the S. aureus and MRSA isolates, the agar aliquot subculture method was used as a test for bactericidal agents. After the MIC value determination, the inoculum was transferred to Mueller–Hinton (Oxoid) agar using a multipoint inoculator. The plates were incubated in a thermostat at 37 °C for 24 h. The lowest concentration of test compound at which ≤5 colonies were obtained was then evaluated as MBC, corresponding to a 99.9% decrease in CFU relative to the original inoculum.

MRSA SA 630 [2] = test: MBC, agar aliquot subculture method; format: cell-based; conditions: Staphylococcus aureus
Method: as §1, §2

MRSA 63718 [3] = test: MBC, agar aliquot subculture method; format: cell-based; conditions: Staphylococcus aureus
Method: as §1, §2

MRSA SA 3202 [4] = test: MBC, agar aliquot subculture method; format: cell-based; conditions: Staphylococcus aureus
Method: as §1, §2

[5] = system: Staphylococcus aureus ATCC 29213; test: MIC, microtitration broth method; format: cell-based; conditions: ATCC29213, SA = S. aureus ATCC 29213, 24 h, read-out: MIC
Method: as §1
(§3) In vitro antibacterial activity of the synthesized compounds was evaluated against representatives of multidrug-resistant bacteria, three clinical isolates of methicillin-resistant S. aureus: clinical isolate of animal origin, MRSA 63718 (Department of Infectious Diseases and Microbiology, Faculty of Veterinary Medicine, University of Veterinary Sciences Brno, Czech Republic), carrying the mecA gene; and MRSA SA 630 [46] and MRSA SA 3202 [46] (National Institute of Public Health, Prague, Czech Republic), both of human origin. Suspected colonies were confirmed by PCR; a 108bp fragment specific for S. aureus was detected. All isolates were tested for the presence of the mecA gene encoding methicillin resistance. […] Vancomycin-susceptible methicillin-susceptible S. aureus (VS-MSSA) ATCC 29213, obtained from the American Type Culture Collection, was used as the reference and quality control strain. Enterococcus faecalis ATCC 29212 was obtained from the American Type Culture Collection and used as the reference and quality control strain.
(§4) The minimum inhibitory concentrations (MICs) were evaluated by the microtitration broth method according to the CLSI [64, 65] with some modifications. The compounds were dissolved in DMSO (Sigma, St. Louis, MO, USA) to get a concentration […] and diluted in a microtitration plate in an appropriate medium, namely, Cation Adjusted Mueller–Hinton (CaMH, Oxoid, Basingstoke, UK) for staphylococci (S. aureus ATCC 29213, clinical isolates of MRSA 63718, SA 630, and SA 3202) and brain heart infusion (BHI, Oxoid) for E. faecalis ATCC 29212, to reach the final concentration of 256-0.125 µg/mL. The plate was inoculated by the tested microorganisms. The final concentration of bacterial cells was 10^5 for bacteria. Ampicillin (Sigma) was used as reference drugs. A drug-free control and a sterility control were included. The plates were incubated for 24 h at 37 °C for staphylococci and E. faecalis ATCC 29212 (stability evaluation of the carbamates, see Supplementary materials, Table S1). […] The experiments were repeated three times.

MRSA SA 630 [6] = test: MIC, microtitration broth method; format: cell-based; conditions: Staphylococcus aureus
Method: as §1, §3, §4

MRSA 63718 [7] = test: MIC, microtitration broth method; format: cell-based; conditions: Staphylococcus aureus
Method: as §1, §3, §4

MRSA SA 3202 [8] = test: MIC, microtitration broth method; format: cell-based; conditions: Staphylococcus aureus
Method: as §1, §3, §4

THP-1 cells = test: In vitro cytotoxicity assay (WST-1); format: cell-based; conditions: Homo sapiens; THP-1, 24 h, ± SD, n = 6; read-out: IC50
Method: Preliminary in vitro cytotoxicity screening of the investigated compounds was performed using human monocytic leukemia THP-1 cells, see Table 2. The ability to inhibit the human cancer cell viability (IC50) of the compounds was compared to camptothecin toxicity (0.16 ± 0.07 μM). […] However, these values are up to two orders of magnitude higher than their significant antistaphyloccocal concentrations. This fact is also taken into account in the calculated selectivity index (SI), Table 2, where for only three compounds the SI is <20, while for the rest of the agents SI is >20, and for some derivatives even 100 and more. Thus, based on all these observations, it can be concluded that all the tested derivatives can be considered as in vitro non-toxic compounds for the subsequent design of new therapeutic agents.
The human THP-1 cell line (European Collection of Cell Cultures, Salisbury, UK) was cultured in RPMI 1640 medium supplemented with 10% fetal bovine serum, 2% L-glutamine, 1% penicillin, and streptomycin at 37 °C with 5% CO2. Cells were passaged at approximately 1-week intervals. All the tested compounds were prepared and dissolved as mentioned in our previous work.

[9] = Lipophilicity determination by RP-HPLC (log k, log D); format: physicochemical; conditions: for log D6.5 / log D7.4 / log k: RP-HPLC; for log D6.5: MeOH 72%/acetate buffered saline pH 6.5; for log D7.4: MeOH 72%/acetate buffered saline pH 7.4; for log k: MeOH 72%/water 28%
Method: Lipophilicity was measured by reversed-phase high performance liquid chromatography (RP-HPLC) under isocratic conditions with methanol as the organic modifier in the aqueous mobile phase and the logarithm of the capacity factor k was calculated, which is used as the lipophilicity index converted to the log P scale. In addition to the log k values, the logarithm of the distribution coefficient DpH at pH 6.5 and 7.4 was determined to clarify the behavior of the compounds under physiological conditions and possible ionization. Instead of water, a buffer of suitable pH was used as part of the mobile phase. In addition to the above-mentioned experimental methods, commercially available ChemBioDraw Ultra 13.0 and ACD/Percepta ver. […] In addition to lipophilicity, other parameters discussed in Ro5, such as molecular weight, number of H-bond donors/acceptors, as well as parameters not reported in Ro5, but characterizing the physicochemical properties of the prepared molecules, such as number of rotatable bonds, were predicted using ACD/Percepta. Moreover, for each R substituent, bulkiness expressed as molar volume (MV [cm^3]), a parameter describing the tail length/branching of each carbamates, was calculated.
A HPLC separation module Agilent 1200 Series (Agilent Technologies, Santa Clara, CA, USA) equipped with a Dual Absorbance Detector (DAD SL G1315C, Agilent Technologies) was used. A chromatographic column Symmetry® C18 5 μm, 4.6 × 250 mm, Part No. W21751W016 (Waters Corp, Milford, MA, USA) was used. The HPLC separation process was monitored by ChemStation for LC 3D systems (Agilent Technologies). […] The total flow of the column was 1.0 mL/min, injection 20 μL, column temperature 40 °C, and sample temperature 10 °C. The detection wavelength of 210 nm was chosen. A KI methanolic solution was used for the determination of the dead times (tD). Retention times (tR) were measured in minutes. The capacity factors k were calculated according to the formula k = (tR − tD)/tD, where tR is the retention time of the solute, and tD is the dead time obtained using an unretained analyte. The distribution coefficients DpH were calculated according to the formula DpH = (tR − tD)/tD. Each experiment was repeated three times.

[10] = system: Enterococcus faecalis ATCC 29212; test: MIC, microtitration broth method; format: cell-based; conditions: for MIC: ATCC29212, EF = Enterococcus faecalis, 24 h, read-out: MIC
Method: as §3, §4

Row | Compound | MBC [1] [µM] | MIC [5] [µM] | IC50 (THP-1 cells) [µM] | MBC (MRSA SA 630 [2]) [µM] | MBC (MRSA 63718 [3]; MRSA) [µM] | MBC (MRSA SA 3202 [4]) [µM] | log D6.5 [9] | log D7.4 [9] | log k [9] | MIC [10] [µM] | MIC (MRSA SA 630 [6]; 24 h) [µM] | MIC (MRSA 63718 [7]; MRSA, 24 h) [µM] | MIC (MRSA SA 3202 [8]; 24 h) [µM] | also measured
1 | CC1(C)S[C@@H]2[C@H](NC(=O)[C@H](N)c3ccccc3)C(=O)N2[C@H]1C(=O)O [APM, ampicillin, reference compound] | > 5.72 | 5.72 (≈ 2 µg/mL) | – | – | – | – | – | – | – | – | – | – | – | MBC (MRSA SA 630 [2]; MRSA2 = SA 630, read-out: MBC): > 45.8 µM; MBC (MRSA 63718 [3]; MRSA1 = MRSA 63718, read-out: MBC): > 45.8 µM; MBC (MRSA SA 3202 [4]; MRSA3 = SA 3202, read-out: MBC): > 45.8 µM; MIC (MRSA SA 630 [6]; MRSA2 = SA 630, 24 h, read-out: MIC): 45.8 µM (≈ 16 µg/mL); MIC (MRSA 63718 [7]; MRSA1 = MRSA 63718, 24 h, read-out: MIC): 45.8 µM (≈ 16 µg/mL); MIC (MRSA SA 3202 [8]; MRSA3 = SA 3202, 24 h, read-out: MIC): 45.8 µM (≈ 16 µg/mL)
2 | CC[C@@]1(O)C(=O)OCc2c1cc1n(c2=O)Cc2cc3ccccc3nc2-1 [CMT, camptothecin, reference compound] | – | – | 0.16 ± 0.07 | – | – | – | – | – | – | – | – | – | – | –
3 | CCCNC(=O)Oc1c(C(=O)Nc2cc(Cl)c(Cl)cc2Cl)ccc2ccccc12 [Compound 3, 2-[N-(2,4,5-Trichlorophenyl)carbamoyl]naphthalen-1-yl propyl carbamate] | 0.035 (≈ 0.0158 µg/mL) | 0.035 (≈ 0.0158 µg/mL) | 3.12 ± 0.07 | 0.553 (≈ 0.25 µg/mL) | 0.277 (≈ 0.125 µg/mL) | 0.071 (≈ 0.0321 µg/mL) | 0.9734 | 0.9793 | 0.9689 | 283 (≈ 128 µg/mL) | 0.553 (≈ 0.25 µg/mL) | 0.139 (≈ 0.0628 µg/mL) | 0.071 (≈ 0.0321 µg/mL) | –
4 | CCCCCNC(=O)Oc1c(C(=O)Nc2cc(Cl)c(Cl)cc2Cl)ccc2ccccc12 [Compound 5, 2-[N-(2,4,5-Trichlorophenyl)carbamoyl]naphthalen-1-yl pentyl carbamate] | 0.067 (≈ 0.0321 µg/mL) | 0.067 (≈ 0.0321 µg/mL) | 3.44 ± 0.04 | 0.521 (≈ 0.25 µg/mL) | 0.261 (≈ 0.125 µg/mL) | 0.131 (≈ 0.0629 µg/mL) | 1.3072 | 1.3168 | 1.3051 | 267 (≈ 128 µg/mL) | 0.261 (≈ 0.125 µg/mL) | 0.261 (≈ 0.125 µg/mL) | 0.131 (≈ 0.0629 µg/mL) | –
5 | CCCCCCNC(=O)Oc1c(C(=O)Nc2cc(Cl)c(Cl)cc2Cl)ccc2ccccc12 [Compound 6, 2-[N-(2,4,5-Trichlorophenyl)carbamoyl]naphthalen-1-yl hexyl carbamate] | 0.128 (≈ 0.0632 µg/mL) | 0.128 (≈ 0.0632 µg/mL) | 3.2 ± 0.19 | 0.506 (≈ 0.25 µg/mL) | 0.253 (≈ 0.125 µg/mL) | 0.253 (≈ 0.125 µg/mL) | 1.4899 | 1.4990 | 1.4883 | 259 (≈ 128 µg/mL) | 0.253 (≈ 0.125 µg/mL) | 0.253 (≈ 0.125 µg/mL) | 0.253 (≈ 0.125 µg/mL) | –
6 | CCCCCCCNC(=O)Oc1c(C(=O)Nc2cc(Cl)c(Cl)cc2Cl)ccc2ccccc12 [Compound 7, 2-[N-(2,4,5-Trichlorophenyl)carbamoyl]naphthalen-1-yl heptyl carbamate] | 0.124 (≈ 0.063 µg/mL) | 0.124 (≈ 0.063 µg/mL) | 3.19 ± 0.44 | 0.492 (≈ 0.25 µg/mL) | 0.246 (≈ 0.125 µg/mL) | 0.246 (≈ 0.125 µg/mL) | 1.6765 | 1.6863 | – | 63 (≈ 32 µg/mL) | 0.246 (≈ 0.125 µg/mL) | 0.246 (≈ 0.125 µg/mL) | 0.246 (≈ 0.125 µg/mL) | anti-enterococcal activity (in words) ([10]; E. faecalis ATCC 29212): moderate activity
7 | CCCCCCCCNC(=O)Oc1c(C(=O)Nc2cc(Cl)c(Cl)cc2Cl)ccc2ccccc12 [Compound 8, 2-[N-(2,4,5-Trichlorophenyl)carbamoyl]naphthalen-1-yl octyl carbamate] | 0.958 (≈ 0.5 µg/mL) | 0.479 (≈ 0.25 µg/mL) | 2.61 ± 0.32 | 1.92 (≈ 1 µg/mL) | 1.92 (≈ 1 µg/mL) | 1.92 (≈ 1 µg/mL) | 1.8687 | 1.8785 | 1.8654 | 123 (≈ 64.2 µg/mL) | 0.479 (≈ 0.25 µg/mL) | 0.958 (≈ 0.5 µg/mL) | 1.92 (≈ 1 µg/mL) | lipophilicity (experimental log k/log D, approximate) [9]: ca. 1.87
8 | CC(C)NC(=O)Oc1c(C(=O)Nc2cc(Cl)c(Cl)cc2Cl)ccc2ccccc12 [Compound 9, 2-[N-(2,4,5-Trichlorophenyl)carbamoyl]naphthalen-1-yl isopropyl carbamate] | 0.018 (≈ 0.00813 µg/mL) | 0.018 (≈ 0.00813 µg/mL) | 3.26 ± 0.08 | 0.277 (≈ 0.125 µg/mL) | 0.139 (≈ 0.0628 µg/mL) | 0.277 (≈ 0.125 µg/mL) | 0.9579 | 1.0468 | 0.9526 | 142 (≈ 64.1 µg/mL) | 0.035 (≈ 0.0158 µg/mL) | 0.139 (≈ 0.0628 µg/mL) | 0.277 (≈ 0.125 µg/mL) | –
9 | O=C(NC1CCCC1)Oc1c(C(=O)Nc2cc(Cl)c(Cl)cc2Cl)ccc2ccccc12 [Compound 10, 2-[N-(2,4,5-Trichlorophenyl)carbamoyl]naphthalen-1-yl cyclopentyl carbamate] | 0.262 (≈ 0.125 µg/mL) | 0.262 (≈ 0.125 µg/mL) | 3.23 ± 0.29 | 1.05 (≈ 0.5 µg/mL) | 0.262 (≈ 0.125 µg/mL) | 2.09 (≈ 0.999 µg/mL) | 1.1521 | 1.1515 | 1.1481 | 268 (≈ 128 µg/mL) | 0.262 (≈ 0.125 µg/mL) | 0.262 (≈ 0.125 µg/mL) | 2.09 (≈ 0.999 µg/mL) | lipophilicity (experimental log k/log D, approximate) [9]: ca. 1.15
